# Data from US20260345619A1 (Principia Biopharma Inc., priority 2023, published 2026).
# Test: Pre-bronchodilator FEV1 and percent predicted FEV1 by spirometry, change from baseline
# Assay type: in vivo, human
# Settings: 400 mg BID
# Procedure: Spirometry is a standard test to measure patients' lung function.
# The primary endpoint was the proportion of patients with LOAC. The key secondary endpoint for the study was change in pre-bronchodilator FEV1 from baseline at EOT.
# Reversibility is defined as an increase of the absolute FEV1 after administration of bronchodilator and is measured by spirometry as postbronchodilator increase in FEV1 in percent of the prebronchodilator FEV1. After spirometry for measuring prebronchodilator FEV1, participants were to receive 2-4 puffs of albuterol/salbutamol or levalbuterol/levosalbutamol from a primed MDI. The postbronchodilator spirometry may have been repeated several times within 30 minutes after administration of bronchodilator. Alternatively, and only if it was consistent with usual office practice (to be documented), reversibility may have been performed using inhalation of nebulized albuterol/salbutamol or levalbuterol/levosalbutamol.
# Secondary endpoints included pre-bronchodilator FEV1 change from baseline at EOT, ACQ-5 score change from baseline, and AQLQ score change from baseline. Other secondary and exploratory endpoints are described in Table 2.
# [1] = Week 12, baseline weight ≥90 kg
# [2] = Week 12, smoking history Former
# [3] = EOT (Week 12), all others, mITT
# [4] = Week 2, before LOAC and OCS use, as observed, mITT
# [5] = Week 2, observed/LOCF imputed, mITT
# [6] = Week 2, on-site conventional spirometry as observed, mITT
# [7] = Week 4, before LOAC and OCS use, as observed, mITT
# [8] = Week 4, observed/LOCF imputed, mITT
# [9] = Week 4, on-site conventional spirometry as observed, mITT
# [10] = Week 6, before LOAC and OCS use, as observed, mITT
# [11] = Week 6, observed/LOCF imputed, mITT
# [12] = Week 6, on-site conventional spirometry as observed, mITT
# [13] = Week 8, before LOAC and OCS use, as observed, mITT
# [14] = Week 8, observed/LOCF imputed, mITT
# [15] = Week 8, on-site conventional spirometry as observed, mITT
# [16] = Week 10, before LOAC and OCS use, as observed, mITT
# [17] = Week 10, observed/LOCF imputed, mITT
# [18] = Week 10, on-site conventional spirometry as observed, mITT
# [19] = Week 12 (EOT), MMRM supplementary analysis, mITT
# [20] = Week 12, before LOAC and OCS use, as observed, mITT
smiles,measurement,setting,value
"CC(C)(C=C(C#N)C(=O)N1CCC[C@@H](n2nc(-c3ccc(Oc4ccccc4)cc3F)c3c(N)ncnc32)C1)N1CCN(C2COC2)CC1 (mixture of isomers) [rilzabrutinib, (R)-2-[3-[4-amino-3-(2-fluoro-4-phenoxy-phenyl)pyrazolo[3,4-d]pyrimidin-1-yl]piperidine-1-carbonyl]-4-methyl-4-[4-(oxetan-3-yl)piperazin-1-yl]pent-2-enenitrile]","Pre-bronchodilator FEV1 change from baseline, LS Mean",[1],-0.25 L
same,"Pre-bronchodilator FEV1 change from baseline, LS Mean Diff vs. placebo",[1],-0.37 L
same,"Pre-bronchodilator FEV1 change from baseline, Mean",[1],-0.17 L
same,"Pre-bronchodilator FEV1 change from baseline, LS Mean","Week 12, female",0.00 L
same,"Pre-bronchodilator FEV1 change from baseline, LS Mean Diff vs. placebo","Week 12, female",0.04 L
same,"Pre-bronchodilator FEV1 change from baseline, Mean","Week 12, female",-0.01 L
same,"Pre-bronchodilator FEV1 change from baseline, LS Mean","Week 12, male",-0.23 L
same,"Pre-bronchodilator FEV1 change from baseline, LS Mean Diff vs. placebo","Week 12, male",-0.16 L
same,"Pre-bronchodilator FEV1 change from baseline, Mean","Week 12, male",-0.08 L
same,"Pre-bronchodilator FEV1 change from baseline, LS Mean",[2],-0.57 L
same,"Pre-bronchodilator FEV1 change from baseline, LS Mean Diff vs. placebo",[2],-0.21 L
same,"Pre-bronchodilator FEV1 change from baseline, Mean",[2],-0.36 L
same,"Pre-bronchodilator FEV1 change from baseline, LS Mean","Week 12, smoking history Never",-0.05 L
same,"Pre-bronchodilator FEV1 change from baseline, LS Mean Diff vs. placebo","Week 12, smoking history Never",0.03 L
same,"Pre-bronchodilator FEV1 change from baseline, Mean","Week 12, smoking history Never",0.02 L
same,"Difference vs. placebo, LS mean change in pre-bronchodilator FEV1 (L) at Week 12","95% CI −0.17, 0.19, p=0.9466",0.01 L
same,"Change from baseline in pre-bronchodilator FEV1, LS Mean (SE)",[3],-0.05 L
same,"Change from baseline in pre-bronchodilator FEV1, LS Mean Diff vs. placebo (95% CI)",[3],0.03 L
same,"Change from baseline in pre-bronchodilator FEV1, Mean (SD)","EOT (Week 12), all others, mITT, n=22",-0.02 L
same,"Change from baseline in pre-bronchodilator FEV1, Mean (SD)","EOT (Week 12), low EOS (<0.15) and low FeNO (<25), mITT, n=3",-0.17 L
same,LS Mean change from baseline in pre-bronchodilator FEV1 (L) at Week 12,"N=32, mITT",−0.07 (0.08) L
same,"Pre-bronchodilator FEV1, mean",[4],2.20 L
same,"Pre-bronchodilator FEV1, median",[4],2.08 L
same,"Pre-bronchodilator FEV1 change from baseline, Mean",[4],0.08 L
same,"Pre-bronchodilator FEV1 change from baseline, median",[4],0.04 L
same,"Pre-bronchodilator FEV1 percent change from baseline, mean",[4],4.47%
same,"Pre-bronchodilator FEV1 percent change from baseline, median",[4],2.02%
same,"Pre-bronchodilator FEV1, mean",[5],2.20 L
same,"Pre-bronchodilator FEV1, median",[5],2.08 L
same,"Pre-bronchodilator FEV1 change from baseline, LS Mean",[5],0.06 L
same,"Pre-bronchodilator FEV1 change from baseline, LS Mean Diff vs. placebo",[5],0.00 L
same,"Pre-bronchodilator FEV1 change from baseline, Mean",[5],0.08 L
same,"Pre-bronchodilator FEV1 change from baseline, median",[5],0.04 L
same,"Pre-bronchodilator FEV1, mean",[6],2.20 L
same,"Pre-bronchodilator FEV1, median",[6],2.08 L
same,"Pre-bronchodilator FEV1 change from baseline, Mean",[6],0.08 L
same,"Pre-bronchodilator FEV1 change from baseline, median",[6],0.04 L
same,"Pre-bronchodilator FEV1 percent change from baseline, mean",[6],4.47%
same,"Pre-bronchodilator FEV1 percent change from baseline, median",[6],2.02%
same,"Pre-bronchodilator FEV1, mean",[7],2.05 L
same,"Pre-bronchodilator FEV1, median",[7],1.96 L
same,"Pre-bronchodilator FEV1 change from baseline, Mean",[7],0.07 L
same,"Pre-bronchodilator FEV1 change from baseline, median",[7],0.02 L
same,"Pre-bronchodilator FEV1 percent change from baseline, mean",[7],3.72%
same,"Pre-bronchodilator FEV1 percent change from baseline, median",[7],0.55%
same,"Pre-bronchodilator FEV1, mean",[8],2.07 L
same,"Pre-bronchodilator FEV1, median",[8],1.96 L
same,"Pre-bronchodilator FEV1 change from baseline, LS Mean",[8],0.08 L
same,"Pre-bronchodilator FEV1 change from baseline, LS Mean Diff vs. placebo",[8],-0.01 L
same,"Pre-bronchodilator FEV1 change from baseline, Mean",[8],0.07 L
same,"Pre-bronchodilator FEV1 change from baseline, median",[8],0.02 L
same,"Pre-bronchodilator FEV1, mean",[9],2.05 L
same,"Pre-bronchodilator FEV1, median",[9],1.96 L
same,"Pre-bronchodilator FEV1 change from baseline, Mean",[9],0.07 L
same,"Pre-bronchodilator FEV1 change from baseline, median",[9],0.02 L
same,"Pre-bronchodilator FEV1 percent change from baseline, mean",[9],3.72%
same,"Pre-bronchodilator FEV1 percent change from baseline, median",[9],0.55%
same,"Pre-bronchodilator FEV1, mean",[10],2.24 L
same,"Pre-bronchodilator FEV1, median",[10],2.01 L
same,"Pre-bronchodilator FEV1 change from baseline, Mean",[10],0.09 L
same,"Pre-bronchodilator FEV1 change from baseline, median",[10],0.07 L
same,"Pre-bronchodilator FEV1 percent change from baseline, mean",[10],3.99%
same,"Pre-bronchodilator FEV1 percent change from baseline, median",[10],3.66%
same,"Pre-bronchodilator FEV1, mean",[11],2.24 L
same,"Pre-bronchodilator FEV1, median",[11],2.01 L
same,"Pre-bronchodilator FEV1 change from baseline, LS Mean",[11],-0.03 L
same,"Pre-bronchodilator FEV1 change from baseline, LS Mean Diff vs. placebo",[11],-0.03 L
same,"Pre-bronchodilator FEV1 change from baseline, Mean",[11],0.09 L
same,"Pre-bronchodilator FEV1 change from baseline, median",[11],0.07 L
same,"Pre-bronchodilator FEV1, mean",[12],2.24 L
same,"Pre-bronchodilator FEV1, median",[12],2.06 L
same,"Pre-bronchodilator FEV1 change from baseline, Mean",[12],0.10 L
same,"Pre-bronchodilator FEV1 change from baseline, median",[12],0.07 L
same,"Pre-bronchodilator FEV1 percent change from baseline, mean",[12],4.61%
same,"Pre-bronchodilator FEV1 percent change from baseline, median",[12],5.14%
same,"Pre-bronchodilator FEV1, mean",[13],2.10 L
same,"Pre-bronchodilator FEV1, median",[13],1.83 L
same,"Pre-bronchodilator FEV1 change from baseline, Mean",[13],0.08 L
same,"Pre-bronchodilator FEV1 change from baseline, median",[13],0.11 L
same,"Pre-bronchodilator FEV1 percent change from baseline, mean",[13],3.28%
same,"Pre-bronchodilator FEV1 percent change from baseline, median",[13],3.73%
same,"Pre-bronchodilator FEV1, mean",[14],2.09 L
same,"Pre-bronchodilator FEV1, median",[14],1.83 L
same,"Pre-bronchodilator FEV1 change from baseline, LS Mean",[14],-0.00 L
same,"Pre-bronchodilator FEV1 change from baseline, LS Mean Diff vs. placebo",[14],0.02 L
same,"Pre-bronchodilator FEV1 change from baseline, Mean",[14],0.04 L
same,"Pre-bronchodilator FEV1 change from baseline, median",[14],0.05 L
same,"Pre-bronchodilator FEV1, mean",[15],2.08 L
same,"Pre-bronchodilator FEV1, median",[15],1.86 L
same,"Pre-bronchodilator FEV1 change from baseline, Mean",[15],0.08 L
same,"Pre-bronchodilator FEV1 change from baseline, median",[15],0.09 L
same,"Pre-bronchodilator FEV1 percent change from baseline, mean",[15],3.30%
same,"Pre-bronchodilator FEV1 percent change from baseline, median",[15],3.64%
same,"Pre-bronchodilator FEV1, mean",[16],2.29 L
same,"Pre-bronchodilator FEV1, median",[16],1.93 L
same,"Pre-bronchodilator FEV1 change from baseline, Mean",[16],0.21 L
same,"Pre-bronchodilator FEV1 change from baseline, median",[16],0.12 L
same,"Pre-bronchodilator FEV1 percent change from baseline, mean",[16],10.71%
same,"Pre-bronchodilator FEV1 percent change from baseline, median",[16],4.52%
same,"Pre-bronchodilator FEV1, mean",[17],2.24 L
same,"Pre-bronchodilator FEV1, median",[17],1.93 L
same,"Pre-bronchodilator FEV1 change from baseline, LS Mean",[17],0.02 L
same,"Pre-bronchodilator FEV1 change from baseline, LS Mean Diff vs. placebo",[17],0.06 L
same,"Pre-bronchodilator FEV1 change from baseline, Mean",[17],0.13 L
same,"Pre-bronchodilator FEV1 change from baseline, median",[17],0.09 L
same,"Pre-bronchodilator FEV1, mean",[18],2.29 L
same,"Pre-bronchodilator FEV1, median",[18],1.93 L
same,"Pre-bronchodilator FEV1 change from baseline, Mean",[18],0.21 L
same,"Pre-bronchodilator FEV1 change from baseline, median",[18],0.12 L
same,"Pre-bronchodilator FEV1 percent change from baseline, mean",[18],10.71%
same,"Pre-bronchodilator FEV1 percent change from baseline, median",[18],4.52%
same,"Change from baseline in pre-bronchodilator FEV1, Mean",[19],-0.02 L
same,"Change from baseline in pre-bronchodilator FEV1, Median",[19],-0.04 L
same,"Pre-bronchodilator FEV1, Mean",[19],2.01 L
same,"Pre-bronchodilator FEV1, Median",[19],1.88 L
same,"Change from baseline in pre-bronchodilator FEV1, LS Mean","Week 12 (EOT), MMRM, mITT",-0.01 L
same,"Change from baseline in pre-bronchodilator FEV1, LS Mean diff vs. placebo","Week 12 (EOT), MMRM, mITT",0.00 L
same,"Pre-bronchodilator FEV1, mean",[20],2.01 L
same,"Pre-bronchodilator FEV1, median",[20],1.88 L
same,"Pre-bronchodilator FEV1 change from baseline, Mean",[20],-0.02 L
